Laboratory results taken from EP0533226A2, “Novel chromophore containing compounds” (MERCK & CO. INC., priority 1991, dated 1993).
Blank lines part the entries; values can stand above or below the compound they belong to. The star is where a group is joined. AMC = Cc1cc(=O)oc2cc(N*)ccc12

Legend:
Type in all cases: biochemical
[1] = target: T1, interleukin-1β converting enzyme (Homo sapiens, UniProt P29466); assay: Direct spectrophotometric assay of ICE activity of DEAE-purified THP-1 cell lysate (Example 2); parameters: THP-1 cell lysate purified approximately 100-fold using DEAE-anion exchange chromatography; endogenous in cells; host or cells: THP-1 cells (lysate, about 100-fold DEAE-purified); conditions: 25 °C, pH 7.5
T1 sequence (P29466 120-297 limits assumed): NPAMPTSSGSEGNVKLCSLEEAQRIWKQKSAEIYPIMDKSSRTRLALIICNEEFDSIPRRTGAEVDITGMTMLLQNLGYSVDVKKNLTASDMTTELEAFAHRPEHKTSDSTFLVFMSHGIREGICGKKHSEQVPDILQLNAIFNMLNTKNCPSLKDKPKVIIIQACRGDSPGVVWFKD
T1 sequence (P29466 317-404 limits assumed): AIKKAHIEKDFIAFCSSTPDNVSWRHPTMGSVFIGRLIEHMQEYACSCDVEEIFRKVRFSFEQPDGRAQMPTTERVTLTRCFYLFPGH
Method: Direct Assay: Interleukin 1β activity of Activity of DEAE-purified THP-1 cell lysate. Enzyme: THP-1 cell lysate purified approximately 100-fold using DEAE-anion exchange chromatography stock concentration = 5 units/ul (a unit is defined as the amount of enzyme required to produce 1 pmole of p-NA/min at 25 degrees using saturating levels of substrate. p-NA is para-nitroanaline.
Substrate: Ac-Tyr-Val-Ala-Asp-p-NA 5 mM stock solution in DMSO
(§1) Buffer: 100 mM Hepes 10% sucrose 0.1% Chaps 1 mM DTT 1 mg/ml BSA pH 7.5
At 25 ° C, […] of Buffer as defined above.
Reaction is monitored continuously in a Cary 219 spectrophotometer at a wavelength of 410 nm. Results: The rate of the reaction under these conditions is 0.005 absorbance units/min, corresponding to 0.5 uM pNA produced/min.

[2] = target: T1, interleukin-1β converting enzyme; assay: Coupled fluorometric assay of ICE activity of DEAE-purified THP-1 cell lysate with leucine aminopeptidase (LAPM) (Example 3); parameters: THP-1 cell lysate purified approximately 100-fold using DEAE-anion exchange chromatography; endogenous in cells; host or cells: THP-1 cells (lysate, about 100-fold DEAE-purified); The coupling enzyme LAPM was purchased from Sigma, No. L-0632, and comes from porcine kidney microsomes; conditions: 25 C
Method: Coupled Assay: Interleukin 1β activity of Activity of DEAE-purified THP-1 cell lysate.
Enzyme: THP-1 cell lysate purified approximately 100-fold using DEAE-anion exchange chromatography stock concentration = 5 units/ul (a unit is defined as the amount of enzyme required to produce 1 pmole of AMC/min at 25 degrees using saturating levels of substrate ( = 50 uM).
Coupling Enzyme: Leucine Aminopetidase Microsomal (Type IV) (LAPM) (purified from porcine kidney microsomes) EC 3.4.11.2 Sigma No. L-0632 12.5 units/ml stock solution in DMSO
Substrate: Ac-Tyr-Val-Ala-Asp-Gly-AMC 5 mM stock solution in DMSO
as §1
At 25 C, 5µl of substrate 50 µl of LAPM, 5µl of ICE were added to 440 µl of buffer. Reaction is monitored continuously in a Gilford Fluoro-IV Spectrofluorometer. excitation wavelength = 380 nm emission wavelength = 460 nm 1 uM AMC = 100% relative fluoroescence

[3] = target: T1, interleukin-1β converting enzyme; assay: Direct fluorometric assay of ICE activity of DEAE-purified THP-1 cell lysate in the presence of an enzyme inhibitor (Example 1B); parameters: THP-1 cell lysate purified approximately 100-fold using DEAE-anion exchange chromatography; endogenous in cells; host or cells: THP-1 cells (lysate, about 100-fold DEAE-purified); conditions: 25 °C
Method: Direct Assay: Interleukin 1β activity of Activity of DEAE-purified THP-1 cell lysate in the presence of an enzyme inhibitor.
(§2) Enzyme: THP-1 cell lysate purified approximately 100-fold using DEAE-anion exchange chromatography stock concentration = 5 units/ul (a unit is defined as the amount of enzyme required to produce 1 pmole of AMC/min at 25 degrees using saturating levels of substrate (> = 50 µM).
Substrate: Ac-Tyr-Val-Ala-Asp-AMC 5 mM stock solution in DMSO
as §1
Sample: compound Z (i.e. N-(N-acetyl-tyrosinylvalinyl-alaninyl)-3-amino-4-oxo butanoic acid) 2µM in H20
At 25 ° C, 5µl of substrate 5µl of enzyme and 5µl of sample were added to 485 µl of Buffer as defined above.
Liberation of AMC was monitored using a Gilford Fluoro IV Spectrofluorometer using an excitation wavelength of 380 nm and an emmission wavelength of 460nm. 1µM AMC = 100% relative fluoroscence.

[4] = target: T1, interleukin-1β converting enzyme; assay: Direct fluorometric assay of ICE activity of DEAE-purified THP-1 cell lysate (Example 1A); parameters: THP-1 cell lysate purified approximately 100-fold using DEAE-anion exchange chromatography; endogenous in cells; host or cells: THP-1 cells (lysate, about 100-fold DEAE-purified); conditions: substrate cleavage, 25 °C, pH 7.5, 5 µl of 5 mM substrate and 5 µl enzyme (5 units/ul) in 490 µl buffer
Method: Direct Assay: Interleukin 1β activity of Activity of DEAE-purified THP-1 cell lysate.
as §2
Substrate: N-(N-Acetyl-Tyrosinyl)-Valinyl-alaninylaspartic acid 7-amino-4-methylcoumarin amide (i.e. Ac-Tyr-Val-Ala-Asp-AMC) 5 mM stock solution in DMSO
Buffer: 100 mM Hepes 10% sucrose 0.1% Chaps 1 mM DTT 1 mg/ml BSA pH 7.5 At 25 ° C, 5µl of substrate and 5µl of enzyme was added to 490 µl of Buffer as defined above.
Liberation of 7-Amino-4-methylcoumarin (AMC) was monitored using a Gilford Fluoro IV Spectrofluorometer using an excitation wavelength of 380 nm and an emmission wavelength of 460nm. 1µM AMC = 100% relative fluoroscence.

[5] = 5 µl of sample 2µM in 500 µl, substrate Ac-Tyr-Val-Ala-Asp-AMC

rate of the reaction (pNA produced) ([1]; corresponding to the absorbance rate at 410 nm): 0.5 uM pNA produced/min
rate of the reaction ([1]; substrate cleavage monitored at 410 nm, 5 mM substrate stock): 0.005 absorbance units/min
Compound: CC(=O)N[C@@H](Cc1ccc(O)cc1)C(=O)N[C@H](C(=O)N[C@@H](C)C(=O)N[C@@H](CC(=O)O)C(=O)Nc1ccc([N+](=O)[O-])cc1)C(C)C [Ac-Tyr-Val-Ala-Asp-p-NA]

Compound: N-(N-Acetyl-tyrosinyl-valinyl-alaninyl-aspartylglycinyl)-7-amino-4-methylcoumarin (Ac-YVADG-{AMC}; SMILES CC(=O)N[C@@H](Cc1ccc(O)cc1)C(=O)N[C@H](C(=O)N[C@@H](C)C(=O)N[C@@H](CC(=O)O)C(=O)NCC(=O)Nc1ccc2c(C)cc(=O)oc2c1)C(C)C) [Ac-Tyr-Val-Ala-Asp-Gly-AMC]
time required to reach 99% of the steady state of the ICE reaction ([2]; 7 x t 1/2, coupled assay with LAPM): 11 min
velocity of the steady state reaction ([2]; coupled assay with LAPM, 5 µl of 5 mM substrate, 5 µl ICE in 500 µl, pH 7.5): 0.05 uM AMC/min
rate constant that describes the approach to steady state ([2]; lag phase, determined by the amount of coupling enzyme (50 µl LAPM, 12.5 units/ml stock)): 0.44 + 0.01 min -1

half-life for the slow onset of inhibition [3, 5]: 2.7 min
rate constant for inhibition [3, 5]: 0.25 min-^1
inhibition ([3]; slow onset of inhibition, value eventually approached, 5 µl of sample 2µM in 500 µl): ~100%
kind of inhibition ([3]; substrate Ac-Tyr-Val-Ala-Asp-AMC, 5 µl of sample 2µM in H2O in 500 µl, pH 7.5): slow, tight-binding inhibitor
Compound: N-(N-acetyl-tyrosinylvalinyl-alaninyl)-3-amino-4-oxo butanoic acid [Compound Z]

initial velocity ([3]; uninhibited initial velocity of substrate cleavage in the presence of compound Z, pH 7.5): 0.05 uM AMC produced/min
rate [4]: 0.005 mM AMC/min
100% relative fluoroscence achieved in ([4]; 1µM AMC = 100% relative fluorescence): 20 min
Compound: CC(=O)N[C@@H](Cc1ccc(O)cc1)C(=O)N[C@H](C(=O)N[C@@H](C)C(=O)N[C@@H](CC(=O)O)C(=O)Nc1ccc2c(C)cc(=O)oc2c1)C(C)C [Ac-Tyr-Val-Ala-Asp-AMC, N-(N-Acetyl-tyrosinyl-valinyl-alaninyl)-aspartic acid a-7-amino-4-methylcoumarin amide]
